The text below walks through data of ChEMBL document CHEMBL1125952, “Prevention of human leukocyte elastase-mediated lung damage by 3-alkyl-4-azetidinones” (1991).

Test [1] has as its target T1, Neutrophil elastase (Homo sapiens) (UniProt P08246).
T1 sequence (whole entry): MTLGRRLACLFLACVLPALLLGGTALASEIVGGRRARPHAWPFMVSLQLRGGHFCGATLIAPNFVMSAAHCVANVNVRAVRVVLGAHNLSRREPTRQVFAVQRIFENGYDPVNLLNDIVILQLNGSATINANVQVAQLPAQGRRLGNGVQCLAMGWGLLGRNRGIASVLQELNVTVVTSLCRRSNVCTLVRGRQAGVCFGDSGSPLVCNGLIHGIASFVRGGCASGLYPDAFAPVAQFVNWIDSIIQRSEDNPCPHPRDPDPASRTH
The test is described as follows: Inhibition of human leukocyte elastase, expressed as biomolecular rate constant.

The target of test [2] is T1, Neutrophil elastase (Homo sapiens). The test is described as follows: Inhibition of human leukocyte elastase-induced lung hemorrhage in hamster, after 100 ug of compound administered intratracheally. Type of test: functional, tissue-based.
Test [3] relates to Cricetinae gen. sp. The test is described as follows: Effective dose administered intratracheally required to give 50% inhibition at 30 minutes prior to installation of human leukocyte elastase in hamster lung. Type of test: functional, Cricetulus griseus.
The subject of test [4] is Cricetinae gen. sp. The test is described as follows: Compound at dose 20 ug was tested for percentage inhibition of HLE-induced Lung Hemorrhage in hamsters at 2 hr prior to installation of human leukocyte elastase. In kind it is functional, Cricetulus griseus.
Test [5] deals with Cricetinae gen. sp. Put plainly: Compound at dose 20 ug was tested for percentage inhibition of HLE-induced Lung Hemorrhage in hamsters at 3 hr prior to installation of human leukocyte elastase. In kind it is functional, Cricetulus griseus.
For test [6], the system named is Cricetinae gen. sp. The test is described as follows: Compound at dose 20 ug was tested for percentage inhibition of HLE-induced Lung Hemorrhage in hamsters at 4 hr prior to installation of human leukocyte elastase. In kind it is functional, Cricetulus griseus.
Test [7] concerns Cricetinae gen. sp. The test is described as follows: Compound at dose 20 ug was tested for percentage inhibition of HLE-induced Lung Hemorrhage in hamsters at 1 hr prior to installation of human leukocyte elastase. Type of test: functional, Cricetulus griseus.

`CCOC(=O)N1C(=O)C(CC)C1Oc1ccc(C(=O)O)cc1` (trans isomer) showed a K obs / 1 in test [1] of 6350 M⁻¹ s⁻¹.
`CCOC(=O)N1C(=O)C(CC)C1Oc1ccc(CC(=O)O)cc1` (trans isomer) registered a K obs / 1 in test [1] of 4100 M⁻¹ s⁻¹.
For the molecule `CCOC(=O)N1C(=O)C(CC)C1OCC(=O)O` (cis isomer), in test [1], the K obs / 1 was 796 M⁻¹ s⁻¹. The molecule also came in with an inhibition in test [2] of 81%.
Molecule `CC[C@H]1C(=O)N(C(=O)NCc2ccccc2)[C@@H]1Oc1ccc(C(=O)O)cc1` came in with a K obs / 1 in test [1] of 3840 M⁻¹ s⁻¹. Besides, in test [2], the inhibition is 2%.
Consider `CC[C@@H]1C(=O)N(S(=O)(=O)c2ccc(C)cc2)[C@@H]1C(=O)N(C)CC(=O)O`, for which the K obs / 1 in test [1] came to 732 M⁻¹ s⁻¹. The same molecule registered an inhibition in test [2] of 94%.
`CC[C@H]1C(=O)N(S(=O)(=O)c2ccc(C)cc2)[C@@H]1C(=O)N(C)CC(=O)O` registered a K obs / 1 in test [1] of 271 M⁻¹ s⁻¹. The molecule also came in with an inhibition in test [2] of 99%.
`CC[C@H]1C(=O)N(S(=O)(=O)c2ccc(C)cc2)[C@@H]1C(=O)O` registered a K obs / 1 in test [1] of 377 M⁻¹ s⁻¹. The ED50 in the test on Cricetinae gen. sp. [3] is 3 µg. Also, the Inhibition with Cricetinae gen. sp. [4] stood at 33%; in the test with Cricetinae gen. sp. [5] it was 1%; in the test on Cricetinae gen. sp. [6], 16%; with Cricetinae gen. sp. [7], 78%. Moreover, the inhibition in test [2] came to 98%.
Turning to `CCC1C(=O)N(C(=O)OCc2ccccc2)C1OCC(=O)O` (trans isomer), the K obs / 1 in test [1] was found to be 955 M⁻¹ s⁻¹. This molecule registered an inhibition in test [2] of 51%.
In turn, `CCOC(=O)N1C(=O)C(CC)C1S(=O)(=O)CC(=O)O` (trans isomer) showed a K obs / 1 in test [1] of 5620 M⁻¹ s⁻¹. For the same molecule, the inhibition in test [2] came to 70%.
For `CC[C@H]1C(=O)N(S(=O)(=O)c2ccc(C)cc2)[C@H]1C(=O)N(C)CC(=O)O`, in that order: 110 M⁻¹ s⁻¹ and 61%.
In test [1], `CCOC(=O)N1C(=O)[C@@H](CC)[C@@H]1OCC(=O)O` showed a K obs / 1 of 136 M⁻¹ s⁻¹. This molecule returned an ED50 with Cricetinae gen. sp. [3] of 11.3 µg. Besides, the Inhibition with Cricetinae gen. sp. [4] is 49%; with Cricetinae gen. sp. [5] it was 6%; with Cricetinae gen. sp. [6] it was -3%; in the test with Cricetinae gen. sp. [7], 92%. This molecule displayed an inhibition in test [2] of 86%.
As to `CCC1C(=O)N(C(=O)NCc2ccccc2)C1OCC(=O)O` (stereo not given), the K obs / 1 in test [1] amounted to 129 M⁻¹ s⁻¹. In test [2], this molecule returned an inhibition of 50%.
The molecule `CCC1C(=O)N(C(=O)NCc2ccccc2)C1Oc1ccc(CC(=O)O)cc1` (trans isomer) showed a K obs / 1 in test [1] of 2070 M⁻¹ s⁻¹.
In the case of `CO[C@H]1C(=O)N2C(C(=O)N3CCC[C@H]3C(=O)O)=C(COC(C)=O)CS(=O)(=O)[C@H]12`, the ED50 in the test on Cricetinae gen. sp. [3] turned out to be 3.1 µg. Further, the Inhibition with Cricetinae gen. sp. [4] is given as 85%; in the test with Cricetinae gen. sp. [5], 74%; with Cricetinae gen. sp. [6] it was -23%; in the test with Cricetinae gen. sp. [7] it was 98%.
In the case of `CC[C@@H]1C(=O)N(C(=O)NCc2ccccc2)[C@H]1Oc1ccc(C(=O)O)cc1`, the K obs / 1 in test [1] is 339 M⁻¹ s⁻¹. In test [2], the inhibition was 17%.
For the molecule `CCOC(=O)N1C(=O)C(CC)C1OCCCC(=O)O` (trans isomer), the K obs / 1 in test [1] was 1250 M⁻¹ s⁻¹. Also, the inhibition in test [2] amounted to 23%.
For `CCOC(=O)N1C(=O)C(CC)C1OCC(=O)NCC(=O)O` (stereo not given), in that order: 1000 M⁻¹ s⁻¹ and 72%.
For `CCC1C(=O)N(S(=O)(=O)c2ccc(C)cc2)C1C(=O)O` (cis isomer), in that order: 93 M⁻¹ s⁻¹ and 80%.
For the molecule `CCOC(=O)N1C(=O)C(CC)C1SCC(=O)O` (trans isomer), in test [1], the K obs / 1 was found to be 1090 M⁻¹ s⁻¹. This molecule also returned an inhibition in test [2] of 56%.
In turn, `CCOC(=O)N1C(=O)C(CC)C1OC(C)C(=O)O` (single isomer, unassigned; isomer A) registered a K obs / 1 in test [1] of 346 M⁻¹ s⁻¹. Besides, the inhibition in test [2] is 71%.
For `CCOC(=O)N1C(=O)C(CC)C1OCC(=O)O` (trans isomer) [listing 1 of 2 here], in that order: 467 M⁻¹ s⁻¹ and 98%.
Turning to `CCOC(=O)N1C(=O)C(CC)C1OCC(=O)O` (trans isomer) [listing 2 of 2 here], the ED50 in the test on Cricetinae gen. sp. [3] is 6.3 µg. The Inhibition is on record as 63% in the test on Cricetinae gen. sp. [4], 36% in the test on Cricetinae gen. sp. [5], -5% with Cricetinae gen. sp. [6] and 96% in the test on Cricetinae gen. sp. [7].
`CCC1C(=O)N(S(=O)(=O)c2ccc(C)cc2)C1C(=O)N(C)CC(=O)O` (cis isomer) yielded a K obs / 1 in test [1] of 165 M⁻¹ s⁻¹. In addition, the ED50 with Cricetinae gen. sp. [3] was 18.7 µg. The Inhibition is given as 68% in the test with Cricetinae gen. sp. [4], 60% in the test with Cricetinae gen. sp. [5], 4% in the test with Cricetinae gen. sp. [6] and 78% in the test with Cricetinae gen. sp. [7]. In addition, the inhibition in test [2] stood at 84%.
In test [1], `CCOC(=O)N1C(=O)C(CC)C1[S+]([O-])CC(=O)O` (stereo not given) showed a K obs / 1 of 1670 M⁻¹ s⁻¹. The molecule further came in with an inhibition in test [2] of 71%.
For `CCOC(=O)N1C(=O)C(CC)C1OCCC(=O)O` (trans isomer), in that order: 560 M⁻¹ s⁻¹ and 31%.
For `CCC1C(=O)N(S(=O)(=O)c2ccc(C)cc2)C1C(=O)OCC(=O)O` (cis isomer) [listing 1 of 2 here], in that order: 1550 M⁻¹ s⁻¹ and 73%.
In the case of `CCC1C(=O)N(S(=O)(=O)c2ccc(C)cc2)C1C(=O)OCC(=O)O` (stereo in doubt), the K obs / 1 in test [1] amounted to 9420 M⁻¹ s⁻¹. The same molecule returned an inhibition in test [2] of 14%.
`CCC1C(=O)N(S(=O)(=O)c2ccc(C)cc2)C1C(=O)OCC(=O)O` (cis isomer) [listing 2 of 2 here] showed an ED50 in the test with Cricetinae gen. sp. [3] of 24.6 µg. Further, the Inhibition in the test with Cricetinae gen. sp. [4] is on record as 32%; in the test with Cricetinae gen. sp. [5], 11%; in the test with Cricetinae gen. sp. [6] it was 30%; in the test on Cricetinae gen. sp. [7], 66%.
`CCCC1C(=O)N(C(=O)OCC)C1OCC(=O)O` (stereo not given) registered a K obs / 1 in test [1] of 1500 M⁻¹ s⁻¹. The molecule also showed an ED50 in the test with Cricetinae gen. sp. [3] of 6.3 µg. The Inhibition in the test on Cricetinae gen. sp. [4] was 31%; with Cricetinae gen. sp. [5] it was -17%; in the test on Cricetinae gen. sp. [6], -2%; in the test with Cricetinae gen. sp. [7] it was 83%. The inhibition in test [2] turned out to be 88%.
Consider `CC[C@@H]1C(=O)N(S(=O)(=O)c2ccc(C)cc2)[C@H]1C(=O)N(C)CC(=O)O`, for which, in test [1], the K obs / 1 came out at 398 M⁻¹ s⁻¹. In addition, the inhibition in test [2] came out at 74%.
As for `CCOC(=O)N1C(=O)C(CC)C1OC(C)C(=O)O` (single isomer, unassigned; isomer B), the K obs / 1 in test [1] is 158 M⁻¹ s⁻¹. In test [2], this molecule had an inhibition of 81%.
Consider `CCOC(=O)N1C(=O)[C@H](CC)[C@H]1OCC(=O)O`, for which the K obs / 1 in test [1] was determined as 918 M⁻¹ s⁻¹. In the test on Cricetinae gen. sp. [3], the ED50 was 3.9 µg. The Inhibition in the test with Cricetinae gen. sp. [4] is listed as 82%; in the test on Cricetinae gen. sp. [5], 59%; in the test with Cricetinae gen. sp. [6], -14%; with Cricetinae gen. sp. [7], 100%. Also, the inhibition in test [2] was 99%.
